# Measured values: paper PMC7464788, “Modification and Targeted Design of N-Terminal Truncates Derived from Brevinin with Improved Therapeutic Efficacy” (Biology, 2020)
# Where “and” joins values, the source holds several entries; their conditions need not be identical. Equal entries are not always repeated. Positions of bridges follow the written chain, without caps; N, C: chain ends. Residues, ends and D or L forms follow the SMILES beside them.
# Legend:
# horse erythrocytes = experiment: Haemolytic assay; format: cell-based; conditions: 2% (v/v) horse red blood cells, 37 °C, 2 h; 1% Triton-X 100 positive control; three times in five replicates
# Protocol: The haemolytic assay was carried out to detect the cytotoxicity of each peptide to erythrocytes obtained from fresh defibrinated horse blood as described before. An appropriate volume of horse blood solution was collected via washing and transferring until the supernatant was clear. Then, 2% (v/v) suspension of red blood cells were incubated with peptide at 37 °C for 2 h. For positive and negative controls, the red blood cells were incubated with 1% (v/v) Triton-X 100 and Phosphate-buffered saline (PBS) solution, respectively. The 10% of maximal haemolysis concentration (HC10, μM) was utilised to assess the haemolytic potential. Experiments were repeated three times in five replicates.
# [1] = test system: Candida albicans (NCYC1467); format: cell-based
# Protocol: (§1) The antimicrobial assay was carried out to detect the minimum inhibitory concentration (MIC) and the minimum bactericidal concentration (MBC) of each peptide on the microbes as described previously. Seven different microorganisms were used in the assay: Gram-positive bacteria Staphylococcus aureus (NCTC10788), Enterococcus faecalis (NCTC12697), and methicillin-resistant S. aureus (MRSA) (NCTC12493); Gram-negative bacteria Escherichia coli (NCTC10418), Pseudomonas aeruginosa (ATCC27853), and Klebsiella pneumoniae (ATCC 43816); and fungi Candida albicans (NCYC1467). Bacterial strains were inoculated and grown to mid-log phase in fresh Mueller Hinton broth (MHB) at 37 °C for overnight, then bacteria inoculum suspensions were subcultured until reaching the logarithmic growth phase by measuring OD of the cultures at wavelength 550 nm. Then, 99 µL bacteria and 1 µL peptide solution were mixed in the 96-wells microplate. For positive and negative controls, the bacteria were incubated with antibiotics (Norfloxacin for Gram-positive bacteria and Gram-negative bacteria; Amphotericin B for fungi) solution and MHB medium, respectively. Experiments were repeated five times in five replicates.
# [2] = test system: Enterococcus faecalis (NCTC12697); format: cell-based
# Protocol: as §1
# [3] = test system: Pseudomonas aeruginosa (ATCC27853); format: cell-based
# Protocol: as §1
# [4] = test system: Klebsiella pneumoniae (ATCC 43816); format: cell-based
# Protocol: as §1
# [5] = test system: Escherichia coli (NCTC10418); format: cell-based
# Protocol: as §1
# [6] = test system: Staphylococcus aureus (NCTC10788); format: cell-based
# Protocol: as §1
# [7] = test system: methicillin-resistant S. aureus (MRSA) (NCTC12493); format: cell-based, Staphylococcus aureus
# Protocol: as §1
SMILES,HC10 (concentration causing 10% red cell lysis) (horse erythrocytes),MBC C. albicans [1],MIC C. albicans [1],MBC E. faecalis [2],MIC E. faecalis [2],MBC P. aeruginosa [3],MIC P. aeruginosa [3],MBC K. pneumoniae [4],MIC K. pneumoniae [4],MBC E. coli [5],MIC E. coli [5],MBC S. aureus [6],MBC MRSA [7],MIC MRSA [7]
CC[C@H](C)[C@@H]1NC(=O)[C@H](C)NC(=O)[C@@H](NC(=O)[C@H](CCCCN)NC(=O)[C@H](C)NC(=O)[C@H](C)NC(=O)[C@H](CC(C)C)NC(=O)CNC(=O)[C@H](C)NC(=O)[C@@H](NC(=O)[C@H](CC(C)C)NC(=O)[C@@H]2CCCN2C(=O)[C@H](CC(C)C)NC(=O)[C@@H](N)Cc2ccccc2)[C@@H](C)CC)CSSC[C@@H](C(=O)O)NC(=O)[C@H](CCCCN)NC(=O)[C@H](CCCCN)NC(=O)[C@H]([C@@H](C)O)NC1=O [Peptide B1A1] (H-FLPLIAGLAAKCAITKKC-OH; disulfide 12-18),could not be calculated and >512 µM,512 µM,512 µM,> 512 µM,> 512 µM,> 512 µM,> 512 µM,> 512 µM,> 512 µM,> 512 µM,512 µM,> 512 µM,> 512 µM,> 512 µM
CC[C@H](C)[C@@H]1NC(=O)[C@H](C)NC(=O)[C@@H](NC(=O)[C@H](Cc2ccccc2)NC(=O)[C@@H](NC(=O)[C@H](CCCCN)NC(=O)[C@@H]2CCCN2C(=O)[C@H](CC(C)C)NC(=O)[C@@H](N)Cc2ccccc2)[C@@H](C)CC)CSSC[C@@H](C(=O)O)NC(=O)[C@H](CCCCN)NC(=O)[C@H](CCCCN)NC(=O)[C@H]([C@@H](C)O)NC1=O [Peptide B1A2] (H-FLPKIFCAITKKC-OH; disulfide 7-13),could not be calculated and >512 µM,512 µM,512 µM,> 512 µM,> 512 µM,> 512 µM,> 512 µM,> 512 µM,> 512 µM,256 µM,256 µM,256 µM,> 512 µM,256 µM
CC[C@H](C)[C@@H]1NC(=O)[C@H](C)NC(=O)[C@@H](NC(=O)[C@H](Cc2ccccc2)NC(=O)[C@@H](NC(=O)[C@H](CCCCN)NC(=O)[C@H](Cc2c[nH]c3ccccc23)NC(=O)[C@@H]2CCCN2C(=O)[C@H](CC(C)C)NC(=O)[C@H](Cc2ccccc2)NC(=O)[C@@H](N)CCCCN)[C@@H](C)CC)CSSC[C@@H](C(=O)O)NC(=O)[C@H](CCCCN)NC(=O)[C@H](CCCCN)NC(=O)[C@H]([C@@H](C)O)NC1=O [KWB2] (H-KFLPWKIFCAITKKC-OH; disulfide 9-15),99.81 µM,64 µM,16 µM,512 µM,256 µM,256 µM,128 µM,128 µM,64 µM,32 µM,16 µM,32 µM,64 µM,8 µM
"CC[C@H](C)[C@@H]1NC(=O)[C@H](C)NC(=O)[C@@H](NC(=O)[C@H](Cc2ccccc2)NC(=O)[C@@H](NC(=O)[C@H](CCCCN)NC(=O)[C@H](Cc2c[nH]c3ccccc23)NC(=O)[C@@H]2CCCN2C(=O)[C@H](Cc2c[nH]c3ccccc23)NC(=O)[C@H](Cc2ccccc2)NC(=O)[C@@H](N)CCCCN)[C@@H](C)CC)CSSC[C@@H](C(=O)O)NC(=O)[C@H](CCCCN)NC(=O)[C@H](CCCCN)NC(=O)[C@H]([C@@H](C)O)NC1=O [KW^3,5B2] (H-KFWPWKIFCAITKKC-OH; disulfide 9-15)",32.07 µM,32 µM,8 µM,256 µM,256 µM,128 µM,64 µM,64 µM,32 µM,32 µM,16 µM,16 µM,32 µM,8 µM
"CC[C@H](C)[C@@H]1NC(=O)[C@H](C)NC(=O)[C@@H](NC(=O)[C@H](Cc2ccccc2)NC(=O)[C@H](Cc2c[nH]c3ccccc23)NC(=O)[C@H](CCCCN)NC(=O)[C@H](Cc2c[nH]c3ccccc23)NC(=O)[C@@H]2CCCN2C(=O)[C@H](CC(C)C)NC(=O)[C@H](Cc2ccccc2)NC(=O)[C@@H](N)CCCCN)CSSC[C@@H](C(=O)O)NC(=O)[C@H](CCCCN)NC(=O)[C@H](CCCCN)NC(=O)[C@H]([C@@H](C)O)NC1=O [KW^5,7B2] (H-KFLPWKWFCAITKKC-OH; disulfide 9-15)",58.42 µM,32 µM,16 µM,512 µM,256 µM,128 µM,64 µM,64 µM,32 µM,64 µM,16 µM,16 µM,32 µM,8 µM
CC[C@H](C)[C@@H]1NC(=O)[C@H](C)NC(=O)[C@@H](NC(=O)[C@H](Cc2ccccc2)NC(=O)[C@@H](NC(=O)[C@H](CCCCN)NC(=O)[C@@H]2CCCN2C(=O)[C@H](CC(C)C)NC(=O)[C@H](Cc2ccccc2)NC(=O)[C@H](CCCCN)NC(=O)[C@@H](N)CCCCN)[C@@H](C)CC)CSSC[C@@H](C(=O)O)NC(=O)[C@H](CCCCN)NC(=O)[C@H](CCCCN)NC(=O)[C@H]([C@@H](C)O)NC1=O [KKB2] (H-KKFLPKIFCAITKKC-OH; disulfide 9-15),207 µM,64 µM,32 µM,512 µM,512 µM,> 512 µM,256 µM,256 µM,128 µM,32 µM,16 µM,64 µM,64 µM,16 µM
CC[C@H](C)[C@@H]1NC(=O)[C@H](C)NC(=O)[C@@H](NC(=O)[C@H](Cc2ccccc2)NC(=O)[C@@H](NC(=O)[C@H](CCCCN)NC(=O)[C@@H]2CCCN2C(=O)[C@H](CC(C)C)NC(=O)[C@H](Cc2ccccc2)NC(=O)[C@@H](N)CCCCN)[C@@H](C)CC)CSSC[C@@H](C(=O)O)NC(=O)[C@H](CCCCN)NC(=O)[C@H](CCCCN)NC(=O)[C@H]([C@@H](C)O)NC1=O [KB2] (H-KFLPKIFCAITKKC-OH; disulfide 8-14),154 µM,512 µM,128 µM,> 512 µM,512 µM,> 512 µM,512 µM,256 µM,256 µM,,,,128 µM,16 µM
